From PubChem BioAssay AID248 (DTP/NCI, 2004)
Where “and” joins values, the source holds several entries; their conditions need not be identical. Identical values can stand only once. Inconclusive results and toxic doses are left out.

Test system: L1210 leukemia ip in BDF1 mice, survival T/C
Assay: NCI In Vivo Anticancer Drug Screen. Data for tumor model L1210 Leukemia (intraperitoneal) in B6D2F1 (BDF1) mice
Conditions: endpoint: mean survival time, higher = longer survival
How it was run: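 Read-out is survival time, reported as the treated-group measurement over the vehicle-control measurement.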

[1] = dose: 100.0 mg/kg/injection, schedule: Q01DX001 (ip), vehicle: saline
[2] = dose: 200.0 mg/kg/injection, schedule: Q01DX001 (ip), vehicle: saline
[3] = dose: 400.0 mg/kg/injection, schedule: Q01DX001 (ip), vehicle: saline
[4] = dose: 100.0 mg/kg/injection, schedule: Q04DX003 (ip), vehicle: Klucel (hydroxypropylcellulose) (HPC)
[5] = dose: 200.0 mg/kg/injection, schedule: Q04DX003 (ip), vehicle: Klucel (hydroxypropylcellulose) (HPC)
[6] = dose: 400.0 mg/kg/injection, schedule: Q04DX003 (ip), vehicle: Klucel (hydroxypropylcellulose) (HPC)
[7] = dose: 75.0 mg/kg/injection, schedule: Q01DX001 (ip), vehicle: saline
[8] = dose: 100.0 mg/kg/injection, schedule: Q01DX009 (ip), vehicle: saline with Tween-80
[9] = dose: 200.0 mg/kg/injection, schedule: Q01DX009 (ip), vehicle: saline with Tween-80
[10] = dose: 400.0 mg/kg/injection, schedule: Q01DX009 (ip), vehicle: saline with Tween-80
[11] = dose: 100.0 mg/kg/injection, schedule: Q04DX003 (ip), vehicle: saline
[12] = dose: 200.0 mg/kg/injection, schedule: Q04DX003 (ip), vehicle: saline
[13] = dose: 400.0 mg/kg/injection, schedule: Q04DX003 (ip), vehicle: saline
[14] = dose: 50.0 mg/kg/injection, schedule: Q01DX009 (ip), vehicle: saline
[15] = dose: 50.0 mg/kg/injection, schedule: Q04DX003 (ip), vehicle: saline
[16] = dose: 100.0 mg/kg/injection, schedule: Q04DX002 (ip), vehicle: Klucel (hydroxypropylcellulose) (HPC)
[17] = dose: 200.0 mg/kg/injection, schedule: Q04DX002 (ip), vehicle: Klucel (hydroxypropylcellulose) (HPC)
[18] = dose: 100.0 mg/kg/injection, schedule: Q04DX003 (ip), vehicle: saline with Tween-80
[19] = dose: 200.0 mg/kg/injection, schedule: Q04DX003 (ip), vehicle: saline with Tween-80
[20] = dose: 100.0 mg/kg/injection, schedule: Q01DX009 (ip), vehicle: saline
[21] = dose: 200.0 mg/kg/injection, schedule: Q01DX009 (ip), vehicle: saline
[22] = dose: 100.0 mg/kg/injection, schedule: Q01DX009 (ip), vehicle: Klucel (hydroxypropylcellulose) (HPC)
[23] = dose: 200.0 mg/kg/injection, schedule: Q01DX009 (ip), vehicle: Klucel (hydroxypropylcellulose) (HPC)
[24] = dose: 400.0 mg/kg/injection, schedule: Q01DX009 (ip), vehicle: Klucel (hydroxypropylcellulose) (HPC)

Compound: O=C(Nc1c(Br)cc2c(c1Br)Cc1cc([N+](=O)[O-])ccc1-2)C(Cl)Cl
- T/C (dose: 100.0 mg/kg/injection, schedule: Q01DX001 (ip), vehicle: carboxymethylcellulose (CMC)): 98 % of control
- T/C (dose: 200.0 mg/kg/injection, schedule: Q01DX001 (ip), vehicle: carboxymethylcellulose (CMC)): 107 % of control
- T/C (dose: 400.0 mg/kg/injection, schedule: Q01DX001 (ip), vehicle: carboxymethylcellulose (CMC)): 109 % of control

Compound: CCOC(=N)CC(=O)OCC
- T/C (dose: 50.0 mg/kg/injection, schedule: Q01DX001 (ip), vehicle: saline): 101 % of control and 110 % of control
- T/C (dose: 89.0 mg/kg/injection, schedule: Q01DX001 (ip), vehicle: saline): 101 % of control
- T/C [1]: 104 % of control and 113 % of control
- T/C (dose: 133.0 mg/kg/injection, schedule: Q01DX001 (ip), vehicle: saline): 101 % of control
- T/C [2]: 95 % of control and 104 % of control and 231 % of control
- T/C (dose: 300.0 mg/kg/injection, schedule: Q01DX001 (ip), vehicle: saline): 98 % of control
- T/C [3]: 95 % of control and 101 % of control

Compound: N#CC(C#N)=Cc1c2ccccc2cc2ccccc12
- T/C [4]: 94 % of control
- T/C [5]: 91 % of control
- T/C [6]: 112 % of control

Compound: c1cc[nH]c1
- T/C [7]: 100 % of control

Compound: CCOC(=O)C(C(=O)OCC)C1CCS(=O)(=O)C1 (stereo unspecified)
- T/C [8]: 103 % of control
- T/C [9]: 96 % of control
- T/C [10]: 92 % of control

Compound: Cn1cnnc1N
- T/C [11]: 97 % of control
- T/C [12]: 101 % of control
- T/C [13]: 103 % of control

Compound: CCN1CCC(CN2c3ccccc3Sc3ccccc32)C1 (stereo unspecified)
- T/C (dose: 25.0 mg/kg/injection, schedule: Q01DX009 (ip), vehicle: saline): 105 % of control
- T/C (dose: 25.0 mg/kg/injection, schedule: Q04DX003 (ip), vehicle: saline): 94 % of control
- T/C [14]: 110 % of control
- T/C [15]: 102 % of control
- T/C [1]: 98 % of control
- T/C [11]: 112 % of control

Compound: NNC(=O)CNc1cccc(Cl)c1
- T/C [16]: 101 % of control
- T/C [17]: 108 % of control

Compound: COc1ccc(OC)c(NC(=O)OCCOc2ccccc2)c1
- T/C [8]: 104 % of control
- T/C [9]: 107 % of control
- T/C [10]: 100 % of control

Compound: CC[N+]1(C2CCCCC2)CCCCC1
- T/C (dose: 5.0 mg/kg/injection, schedule: Q01DX001 (ip), vehicle: saline): 101 % of control
- T/C (dose: 10.0 mg/kg/injection, schedule: Q01DX001 (ip), vehicle: saline): 103 % of control
- T/C (dose: 20.0 mg/kg/injection, schedule: Q01DX001 (ip), vehicle: saline): 100 % of control
- T/C (dose: 40.0 mg/kg/injection, schedule: Q01DX001 (ip), vehicle: saline): 91 % of control
- T/C [7]: 96 % of control

Compound: O=[N+]([O-])c1ccc(/C=N/c2ncc(Br)s2)o1
- T/C (dose: 50.0 mg/kg/injection, schedule: Q01DX009 (ip), vehicle: saline with Tween-80): 102 % of control
- T/C [8]: 98 % of control
- T/C [18]: 111 % of control
- T/C [19]: 111 % of control

Compound: O=C(CCl)Nc1ccccc1
- T/C [16]: 89 % of control
- T/C [17]: 92 % of control

Compound: Cc1cc(Cl)c(C)c(C(=O)O)c1Cl
- T/C [14]: 107 % of control
- T/C [15]: 103 % of control
- T/C [1]: 91 % of control
- T/C [20]: 107 % of control
- T/C [11]: 105 % of control
- T/C [2]: 98 % of control
- T/C [21]: 105 % of control
- T/C [12]: 100 % of control

Compound: O=C(O)CSc1ccc(NC(=O)Nc2ccccc2F)cc1
- T/C [1]: 90 % of control
- T/C [8]: 92 % of control
- T/C [11]: 100 % of control
- T/C [2]: 88 % of control
- T/C [9]: 89 % of control
- T/C [12]: 94 % of control
- T/C [3]: 92 % of control
- T/C [10]: 86 % of control
- T/C [13]: 92 % of control

Compound: CCCCNC(=O)Nc1ccc(OC)cc1OC
- T/C [22]: 101 % of control
- T/C [4]: 92 % of control
- T/C [23]: 96 % of control
- T/C [5]: 95 % of control
- T/C [24]: 118 % of control
- T/C [6]: 95 % of control

Compound: COc1cc(C)oc(=O)c1
- T/C (dose: 100.0 mg/kg/injection, schedule: Q01DX001 (ip), vehicle: Klucel (hydroxypropylcellulose) (HPC)): 110 % of control
- T/C [1]: 98 % of control
- T/C [20]: 93 % of control and 101 % of control
- T/C [11]: 97 % of control
- T/C (dose: 200.0 mg/kg/injection, schedule: Q01DX001 (ip), vehicle: Klucel (hydroxypropylcellulose) (HPC)): 104 % of control
- T/C [2]: 98 % of control
- T/C [21]: 93 % of control and 104 % of control
- T/C [12]: 93 % of control
- T/C (dose: 400.0 mg/kg/injection, schedule: Q01DX001 (ip), vehicle: Klucel (hydroxypropylcellulose) (HPC)): 106 % of control
- T/C [3]: 102 % of control
- T/C [10]: 108 % of control
- T/C (dose: 400.0 mg/kg/injection, schedule: Q01DX009 (ip), vehicle: saline): 93 % of control
- T/C [13]: 92 % of control

Compound: NC(=O)c1cc(N2CC2)c([N+](=O)[O-])cc1[N+](=O)[O-]
- T/C (dose: 5.0 mg/kg/injection, schedule: Q01DX001 (ip), vehicle: other): 110 % of control
- T/C (dose: 10.0 mg/kg/injection, schedule: Q01DX001 (ip), vehicle: other): 98 % of control
- T/C (dose: 10.0 mg/kg/injection, schedule: Q01DX009 (ip), vehicle: saline): 105 % of control
- T/C (dose: 20.0 mg/kg/injection, schedule: Q01DX001 (ip), vehicle: other): 101 % of control
- T/C (dose: 20.0 mg/kg/injection, schedule: Q01DX009 (ip), vehicle: saline): 105 % of control
- T/C (dose: 40.0 mg/kg/injection, schedule: Q01DX001 (ip), vehicle: other): 106 % of control
- T/C (dose: 40.0 mg/kg/injection, schedule: Q01DX009 (ip), vehicle: saline): 113 % of control
- T/C (dose: 50.0 mg/kg/injection, schedule: Q01DX001 (ip), vehicle: other): 94 % of control
- T/C (dose: 80.0 mg/kg/injection, schedule: Q01DX001 (ip), vehicle: other): 97 % of control
- T/C (dose: 100.0 mg/kg/injection, schedule: Q01DX001 (ip), vehicle: other): 96 % of control

Compound: N#CC1(NC(Cc2ccccc2)c2ccccc2)CCCC1 (stereo unspecified)
- T/C [22]: 114 % of control
- T/C [23]: 95 % of control
- T/C [24]: 92 % of control

Compound: CC(=O)Nc1cc(Cl)cc2c1-c1c(Cl)cc(Cl)cc1C2=O
- T/C [20]: 98 % of control
- T/C [4]: 94 % of control
- T/C [5]: 94 % of control
- T/C [6]: 91 % of control

Compound: COc1ccc(C(C#N)N2CCCC2)cc1 (stereo unspecified)
- T/C (dose: 6.25 mg/kg/injection, schedule: Q01DX009 (ip), vehicle: other): 95 % of control
- T/C (dose: 6.25 mg/kg/injection, schedule: Q04DX003 (ip), vehicle: other): 98 % of control
- T/C (dose: 12.5 mg/kg/injection, schedule: Q01DX009 (ip), vehicle: other): 95 % of control
- T/C (dose: 12.5 mg/kg/injection, schedule: Q04DX003 (ip), vehicle: other): 104 % of control
- T/C (dose: 25.0 mg/kg/injection, schedule: Q04DX003 (ip), vehicle: other): 96 % of control

Compound: Cc1cc(N2C(=O)CSC2=S)ccc1Br
- T/C [8]: 104 % of control
- T/C [18]: 96 % of control
- T/C [9]: 93 % of control
- T/C [19]: 93 % of control
- T/C (dose: 400.0 mg/kg/injection, schedule: Q04DX003 (ip), vehicle: saline with Tween-80): 104 % of control

Compound: CCOP(=O)(/C(=C\c1ccccc1)C(=O)c1ccccc1)c1ccccc1 (stereo unspecified)
- T/C [22]: 96 % of control
- T/C [4]: 95 % of control
- T/C [23]: 95 % of control
- T/C [5]: 98 % of control
- T/C (dose: 300.0 mg/kg/injection, schedule: Q01DX009 (ip), vehicle: Klucel (hydroxypropylcellulose) (HPC)): 90 % of control
- T/C [6]: 98 % of control
